Like-named read-outs stand apart in the source and are kept apart here.
Key:
[1] = test system: HL60, human leukemia cells; assay: Cytostatic assay, HL-60; assay type: cell-based; details: Table 2
In short: (§1)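 Cells (5-7.5×10^4/well) + test compound; growth 48–96 h (line-dependent), 37° C, humidified CO2 atmosphere; endpoint Coulter count.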

[2] = test system: L1210 cells; assay: Cytostatic assay, L1210; assay type: cell-based; details: Mus musculus, Table 2
In short: as §1

[3] = test system: LNCaP (UZ) prostate cancer cells; assay: Cytostatic assay, LNCaP (UZ); assay type: cell-based; details: Homo sapiens, Table 4
In short: as §1

[4] = test system: HEL embryonic lung fibroblast cells; assay: Cytostatic assay, HEL; assay type: cell-based; details: Homo sapiens, Table 3
In short: as §1

[5] = test system: HOS CD4+ osteosarcoma cells; assay: Cytostatic assay, HOS CD4+; assay type: cell-based; details: Homo sapiens; Table 3
Protocol: (§2) To each well of a 96-well microtiter plate were added 5-7.5×10^4 cells and a given amount of the test compound. The cells were allowed to proliferate for 48 h to 96 h (depending on the nature of the cell line) at 37° C. in a humidified CO2-controlled atmosphere. At the end of the incubation period, the cells were counted in a Coulter Counter (Coulter Electronics Ltd, Harpenden Herts, United Kingdom).

[6] = test system: protein synthesis in Raji cells; assay: Antimetabolic activity assay, [4,5-3H]leucine incorporation (protein synthesis), Raji; assay type: cell-based; details: Homo sapiens, incorporation into TCA-insoluble material
[7] = test system: RNA synthesis in CEM cells; assay: Antimetabolic activity assay, [5-3H]uridine incorporation (RNA synthesis), CEM; assay type: cell-based; details: Homo sapiens, CCRF-CEM, incorporation into TCA-insoluble material
In short: (§3)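 10^5 CEM cells incubated 20 hrs at 37° C with 1 μCi [^3H-methyl]dThd, [5-^3H]Urd or [4,5-^3H]leu plus compound in a 5-fold dilution series. Incorporation measured as acid-insoluble radioactivity collected on glass fiber filters.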

[8] = test system: PNT1A (UZ) prostate cells; assay: Cytostatic assay, PNT1A (UZ); assay type: cell-based; details: Homo sapiens, Table 4
In short: as §1

[9] = test system: PC3 (rega) prostate cancer cells; assay: Cytostatic assay, PC3 (rega); assay type: cell-based; details: Table 4
In short: as §1

[10] = test system: DU145 (UZ) prostate cancer cells; assay: Cytostatic assay, DU145 (UZ); assay type: cell-based; details: Homo sapiens, DU-145; Table 4
In short: as §1

[11] = test system: DNA synthesis in CEM cells; assay: Antimetabolic activity assay, [CH3-3H]dThd incorporation (DNA synthesis), CEM; assay type: cell-based; details: Homo sapiens, CCRF-CEM, incorporation into TCA-insoluble material
In short: as §3

[12] = test system: PLC/PRF/5 hepatoma cells; assay: Cytostatic assay, PLC/PRF/5; assay type: cell-based; details: Homo sapiens, Table 4
In short: as §1

[13] = test system: MT-4 cells; assay: Cytostatic assay, MT-4; assay type: cell-based; details: Homo sapiens, MT4; Table 2
In short: as §1

[14] = test system: 22Rv1 (UZ) prostate cancer cells; assay: Cytostatic assay, 22Rv1 (UZ); assay type: cell-based; details: Homo sapiens, Table 4
In short: as §1

[15] = test system: Caki-2 kidney carcinoma cells; assay: Cytostatic assay, Caki-2; assay type: cell-based; details: Homo sapiens, Table 3
In short: as §1

[16] = test system: broad variety of tumor cell lines; assay: Cytostatic assays, summary over the panel of cell lines (Tables 2-4); assay type: cell-based
Protocol: as §2

[17] = test system: PC-3 (UZ) prostate cancer cells; assay: Cytostatic assay, PC-3 (UZ); assay type: cell-based; details: Table 4
In short: as §1

[18] = test system: DNA synthesis in Raji cells; assay: Antimetabolic activity assay, [CH3-3H]dThd incorporation (DNA synthesis), Raji; assay type: cell-based; details: Homo sapiens, incorporation into TCA-insoluble material
[19] = test system: C8166 cells; assay: Cytostatic assay, C8166; assay type: cell-based; details: Homo sapiens, Table 2
In short: as §1

[20] = test system: HT29 colorectal carcinoma cells; assay: Cytostatic assay, HT29; assay type: cell-based; details: Homo sapiens, HT-29; Table 3
In short: as §1

[21] = test system: RNA synthesis in Raji cells; assay: Antimetabolic activity assay, [5-3H]uridine incorporation (RNA synthesis), Raji; assay type: cell-based; details: Homo sapiens, incorporation into TCA-insoluble material
[22] = test system: MT-2 cells; assay: Cytostatic assay, MT-2; assay type: cell-based; details: Homo sapiens, MT2; Table 2
In short: as §1

[23] = test system: Sup T1 cells; assay: Cytostatic assay, Sup T1; assay type: cell-based; details: Homo sapiens, Table 2, read-out: Cytostatic activity (μM) Sup T 1
In short: as §1

[24] = test system: U87 glioma cells; assay: Cytostatic assay, U87; assay type: cell-based; details: Homo sapiens, U-87 MG; Table 3
In short: as §1

[25] = test system: Molt4/C8 cells; assay: Cytostatic assay, Molt4/C8; assay type: cell-based; details: Table 2
In short: as §1

[26] = test system: Caki-1 kidney carcinoma cells; assay: Cytostatic assay, Caki-1; assay type: cell-based; details: Homo sapiens, Table 3
In short: as §1

[27] = test system: THP-1, human monocytic cells; assay: Cytostatic assay, THP-1; assay type: cell-based; details: Table 2
In short: as §1

[28] = test system: OST TK- osteosarcoma cells; assay: Cytostatic assay, OST TK-; assay type: cell-based; details: Homo sapiens; Table 3
In short: as §1

[29] = test system: Daudi, human B-lymphoma cells; assay: Cytostatic assay, Daudi; assay type: cell-based; details: Table 2
Protocol: as §2

[30] = test system: Raji, human B-lymphoma cells; assay: Cytostatic assay, Raji; assay type: cell-based; details: Table 2
In short: as §1

[31] = test system: Huh-7 hepatoma cells; assay: Cytostatic assay, Huh-7; assay type: cell-based; details: Homo sapiens, Table 4
In short: as §1

[32] = test system: MCF-7 mammary carcinoma cells; assay: Cytostatic assay, MCF-7; assay type: cell-based; details: Homo sapiens, MCF7; Table 3
In short: as §1

[33] = test system: protein synthesis in CEM cells; assay: Antimetabolic activity assay, [4,5-3H]leucine incorporation (protein synthesis), CEM; assay type: cell-based; details: Homo sapiens, CCRF-CEM, incorporation into TCA-insoluble material
In short: as §3

[34] = test system: HUT-78 cells; assay: Cytostatic assay, HUT-78; assay type: cell-based; details: Homo sapiens, HuT78; Table 2
In short: as §1

[35] = test system: FM3A mammary carcinoma cells; assay: Cytostatic assay, FM3A; assay type: cell-based, murine; details: Mus musculus, Table 3
In short: as §1

[36] = test system: HeLa cervix carcinoma cells; assay: Cytostatic assay, HeLa; assay type: cell-based, human; details: Homo sapiens; Table 3; read-out: Cytostatic activity (μM) Hela
In short: as §1

[37] = test system: BAEC aortic endothelial cells; assay: Cytostatic assay, BAEC; assay type: cell-based, bovine; details: Bos taurus, Table 3
In short: as §1

[38] = test system: U937, human monocytic cells; assay: Cytostatic assay, U937; assay type: cell-based; details: U-937, Table 2
In short: as §1

[39] = test system: HepG2C3A hepatoma cells; assay: Cytostatic assay, HepG2C3A; assay type: cell-based; details: Homo sapiens, HepG2/C3A; Table 4
In short: as §1

[40] = test system: BPH-1 (UZ); assay: Cytostatic assay, BPH-1 (UZ); assay type: cell-based; details: Homo sapiens, Table 4
In short: as §1

[41] = test system: U87 CD4+/CXCR4+/CCR5+ glioma cells; assay: Cytostatic assay, U87 CD4+/CXCR4+/CCR5+; assay type: cell-based; details: Homo sapiens, Glioma cell; Table 3
Protocol: as §2

[42] = test system: 293T embryonic kidney cells; assay: Cytostatic assay, 293T; assay type: cell-based; details: Homo sapiens, HEK-293T; Table 3
In short: as §1

[43] = test system: CEM cells; assay: Cytostatic assay, CEM; assay type: cell-based; details: Homo sapiens, CCRF-CEM
In short: as §1

CCOC(=O)c1cc(C#Cc2ccc(OC)cc2)sc1N [TR530, 2-Amino-5-(4-methoxy-phenylethynyl)-thiophene-3-carboxylic acid ethyl ester]
IC50 [1]: 6.2 ± 8.5 µM
IC50 [2]: 40 ± 2 µM
IC50 [3]: 0.26 ± 0.081 µM
IC50 [4]: 35 ± 13 µM
IC50 [5]: 35 ± 7.1 µM
IC50 [6]: ≥ 100 µM
IC50 [7]: 0.66 ± 0.01 µM
IC50 [8]: 38 ± 7.8 µM
IC50 [9]: 0.29 ± 0.14 µM
IC50 [10]: 9.3 ± 8.4 µM
IC50 [11]: 2.3 ± 1 µM
IC50 [12]: 41 ± 6.4 µM
IC50 [13]: 22 ± 15 µM
IC50 [14]: 6.3 ± 2.5 µM
IC50 [15]: 88 ± 17 µM
IC50 ([16]; Homo sapiens, HuT78, range for the seven compounds, MT-4 and HUT-78 cells, read-out: IC50 range, cytostatic activity against MT-4 and HUT-78 cells): 8.5 to 60 µM
IC50 ([16]; range for the seven compounds against the 5 tumor cell lines, read-out: IC50 range, cytostatic activity against CEM, Molt4/C8, Sup T1, MT-2 and C8166 cells): 0.22 to 3.4 µM
IC50 [17]: 0.96 ± 0.2 µM
IC50 [18]: ≥ 100 µM
IC50 [19]: 2.8 ± 0.14 µM
IC50 [20]: 48 ± 23 µM
IC50 [21]: 60 ± 57 µM
IC50 [22]: 1.5 ± 0.21 µM
IC50 [23]: 1.5 ± 0.14 µM
IC50 [24]: 37 ± 2.8 µM
IC50 [25]: 0.22 µM
IC50 [26]: 5.3 ± 2.2 µM
IC50 [27]: 44 ± 1.4 µM
IC50 [28]: 3.8 ± 1.7 µM
IC50 [29]: 43 ± 2.8 µM
IC50 [30]: 48 ± 1.4 µM
IC50 [31]: 1.5 ± 0.28 µM
IC50 [32]: 42 ± 0.71 µM
IC50 [33]: 0.2 ± 0.07 µM
IC50 [34]: 44 ± 6.4 µM
IC50 [35]: 40 ± 3.5 µM
IC50 [36]: 42 ± 5.5 µM
IC50 [37]: 16 ± 16 µM
IC50 [38]: 41 ± 1.4 µM
IC50 [39]: 12 ± 2.1 µM
IC50 [40]: 41 ± 1.4 µM
IC50 [41]: 28 ± 3.5 µM
IC50 [42]: 37 ± 0.71 µM
IC50 ([43]; Table 1a, read-out: IC50 μM (CEM)): 0.7 µM
IC50 ([43]; Table 2, read-out: Cytostatic activity (μM) CEM): 0.73 ± 0.62 µM

Source: US9278958B2, “Anti-cancer compounds” (KATHOLIEKE UNIVERSITEIT LEUVEN, priority 2012, dated 2016)
